The experiment has as its system skeletal muscle capillaries. Description: Microvascular perfusion viewed in real time through a dissecting microscope after topical application. Format: in vivo, mouse. The text has this: Newborn mice pups were anesthetized after feeding to ensure a stomach filled with milk, for the purpose of providing optical contrast. […] Histamine, papaverine, or both, dissolved in PBS, were applied topically to the capillaries. Video recordings were made against a time line with an attached camera.

As for `NCCc1c[nH]cn1` [histamine], the “effect on microvascular perfusion” value (10 millimolar) is “rapidly induced vasodilation, and was followed within seconds by progressive capillary stasis”.

`COc1ccc(Cc2nccc3cc(OC)c(OC)cc23)cc1OC` [papaverine]: the “effect on microvascular perfusion” value (300 micrograms per milliliter) is “capillary recruitment and increased local perfusion”.

For the origin of these results see patent US6673039B1, “Compositions, kits, methods, and apparatus for transvascular delivery of a composition to an extravascular tissue of a mammal” (Trustees of the University of Pennsylvania, priority 1997, dated 2004).
